Laboratory results from patent publication US20230255943A1, “MMP-9 AND MMP-12 INHIBITION FOR TREATING SPINAL CORD INJURY OR RELATED INJURY TO NEUROLOGICAL TISSUE” (The University of Birmingham, priority 2020, published 2023).

Key:
MMP-12 = molecular target: T1, MMP-12 (Mus musculus, UniProt P34960); assay: MMP-12 enzyme activity after SCI in mice (SensoLyte 520 fluorimetric assay); assay type: in vivo; details: for suppression of MMP-12 activity in CSF / suppression of MMP-12 activity in serum / suppression of MMP-12 activity in spinal cord tissues: DC injury; for suppression of MMP-12 activity in spinal cord tissues: lowest most effective dose
T1 construct: from tissue; host or cells: mouse spinal cord lesion site homogenate, serum and CSF
Procedure: For oral delivery of AZD1236, n=6 adult male C57BL6 mice/group (Charles River, Margate, UK) were randomly allocated to either: (1), Sham (control; partial laminectomy but no DC crush injury); (2), DC crush injury+vehicle (partial laminectomy followed by DC crush injury and injection of vehicle); (3), DC crush injury+100 mg/kg AZD1236; (4), DC crush injury+200 mg/kg AZD1236; and (5), DC crush injury+300 mg/kg AZD1236. For intrathecal (it) delivery of AZD1236, adult male C57BL6 mice (25-30 g) (Charles River, Margate, UK) were randomly allocated to either: (1), Sham (control; partial laminectomy but no DC crush injury); (2), DC crush injury+vehicle (partial laminectomy followed by DC crush injury and injection of vehicle); (3), DC crush injury+2.5 mg/kg AZD1236; (4), DC crush injury+5 mg/kg AZD1236; and (5), DC crush injury+10 mg/kg AZD1236. For intrathecal delivery an indwelling atlanto-occipital intrathecal catheter was inserted into the intrathecal space, as described previously (F. A. Oladosu, B. P. Ciszek, S. C. O'Buckley, A. G. Nackley, Novel intrathecal and subcutaneous catheter delivery systems in the mouse. J Neurosci Methods 264, 119-128 (2016)). Briefly, with mice in the sternal recumbency a small incision was made at the nape of the neck followed by detachment of the muscles on either side of the external occipital crest to expose the A-O membrane. The membrane was incised and a 6 cm Alzet mouse intrathecal catheter (Alzet, Cupertino, Calif., USA) and polyurethane segments were gently guided 2.5 cm into the intrathecal space. The catheter was secured using 4-0 silk sutures (Oasis Medical, IL) and the exposed end of the catheter was sealed off with a stainless-steel plug and affixed to the upper back. Animals were injected immediately with vehicle or AZD1236 followed by a 10 μl PBS catheter flush. Injections were repeated every twice daily for the first 3 days after injury and drugs and vehicle reagents were delivered over 1 min time period using a Hamilton microlitre syringe (Hamilton Co, USA). Where specified intact animals with no surgical procedures were also used. All lesions were administered under 5% isofluorane induced inhalation anaesthesia, with 1.51/min O2. Pre- and post-injury analgesia was also provided.
DC crush injury was administered bilaterally at the T8 vertebral level as described previously (S. Surey, M. Berry, A. Logan, R. Bicknell, Z. Ahmed, Differential cavitation, angiogenesis and wound-healing responses in injured mouse and rat spinal cords. Neuroscience 275, 62-80 (2014); M. L. Read, S. Mir, R. Spice, R. J. Seabright, E. L. Suggate, Z. Ahmed, M. Berry, A. Logan, Profiling RNA interference (RNAi)-mediated toxicity in neural cultures for effective short interfering RNA design. J Gene Med 11, 523-534 (2009)). Briefly, calibrated watchmaker's forceps were separated by 0.5 mm and inserted through the dorsal cord meninges to a depth of 0.45 mm in mice and separated by 1 mm and inserted through the dorsal cord meninges to a depth of 1.0 mm in rats, and the DC were crushed for 3 seconds. AZD1236 or vehicle was administered twice daily by oral gavage or intrathecally, either immediately for the first 3 days or 24 hours after injury and treating twice daily until day 4 (i.e. 3 days of AZD1236 dosing). All experiments were performed with n=6 mice/group and repeated on at least 2-3 independent occasions (total=12-18 animals/group/test).
CC SCI was administered at the T7-T8 vertebral level after exposure of T6-T9 by laminectomy. […]

[1] = tested on: other members of the enzyme family; assay: Selectivity to other members of the enzyme family; assay type: biochemical, human; details: relative to MMP-9 and MMP-12
[2] = tested on: mice with DC crush injury; assay: NF200+ spared fibres above and below the lesion; assay type: in vivo, mouse; details: oral
IL-1β, TNF-α and IL-6 = assay: Proinflammatory pain cytokines after DC injury in rats; assay type: in vivo; details: rat DC injury, oral
Procedure: The efficacy of oral AZD3342 in the DC injury model in adult Sprague-Dawley rat was also assessed. Animals were divided into 6 groups: (1), Sham (control); (2), DC crush injury+Vehicle; (3), DC crush injury+15 mg/kg AZD3342; (4), DC crush injury+75 mg/kg […]; (5), DC crush injury+375 mg/kg AZD3342; and (6), DC crush injury+Melatonin. Animals were dosed twice daily with oral AZD3342 or vehicle with the experimenters masked to the treatment conditions. These experiments were performed with n=6 rats/group and repeated on 2-3 independent occasions (total n=12-18 rats/group/test).
The lesion site+5 mm either side (DC and CC SCI, n=6 mice/rats/group, 2 independent repeats (total n=12 mice/rats/group)) was dissected and rapidly frozen in liquid N2 and stored at −80° C. until required. […] The levels of mRNA of MMP-9, MMP-12, IL-1β, TNF-α and IL-6 were determined using pre-validated mouse primer sequences from complimentary DNA prepared from extracted mRNA and qRT-PCR was performed using a LightCycler PCR machine (Roche, Burgess Hill, UK) (M. L. Read, S. Mir, R. Spice, R. J. Seabright, E. L. Suggate, Z. Ahmed, M. Berry, A. Logan, Profiling RNA interference (RNAi)-mediated toxicity in neural cultures for effective short interfering RNA design. J Gene Med 11, 523-534 (2009)). […]

T1 sequence (P34960 110-473): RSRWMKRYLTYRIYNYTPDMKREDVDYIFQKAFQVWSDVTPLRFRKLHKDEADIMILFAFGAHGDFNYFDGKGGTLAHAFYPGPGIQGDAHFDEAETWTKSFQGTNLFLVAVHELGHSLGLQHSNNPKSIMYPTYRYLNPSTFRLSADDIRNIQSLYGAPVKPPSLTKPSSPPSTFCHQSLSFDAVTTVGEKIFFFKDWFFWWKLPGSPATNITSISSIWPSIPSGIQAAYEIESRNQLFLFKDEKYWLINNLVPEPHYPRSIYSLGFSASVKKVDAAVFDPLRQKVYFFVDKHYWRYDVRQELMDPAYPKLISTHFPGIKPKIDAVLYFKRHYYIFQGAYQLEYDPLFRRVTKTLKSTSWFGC

C[C@]1(CS(=O)(=O)N2CC=C(C#Cc3cnc(C4CC4)nc3)CC2)NC(=O)NC1=O [AZD1236]
suppression of MMP-12 activity in CSF (MMP-12; intrathecal delivery): 90±1%
suppression of MMP-12 activity in serum (MMP-12; intrathecal delivery): 71±1%
suppression of MMP-12 activity in spinal cord tissues (MMP-12; intrathecal): 86±4%
suppression of MMP-12 activity in CSF (MMP-12; oral delivery, 200 mg/kg): 69±3%
suppression of MMP-12 activity in serum (MMP-12; oral delivery, 200 mg/kg): 90±3%
suppression of MMP-12 activity in spinal cord tissues (MMP-12; oral): 85±3%
time for MMP-12 activity to return to DC+Vehicle injury levels after withdrawal (MMP-12; injury site, oral dosing withdrawn after 3 d): 5 days
MMP-12 activity, 24-h delayed treatment (MMP-12; optimal doses, 24 h delay vs immediate): equally as effective as immediate delivery
selectivity to other members of the enzyme family [1]: > 350 fold
NF200+ spared fibres above (T9) and below (T7) the lesion site [2]: significantly preserved axon fibres

C[C@]1(CS(=O)(=O)N2CCC(Oc3ccc(Cl)cn3)CC2)NC(=O)NC1=O [AZD3342, (5S)-5-[4-(5-chloro-pyridin-2-yloxy)-piperidine-1-sulfonylmethyl]-5-methylimidazolidine-2,4-dione]
expression of proinflammatory pain cytokines (IL-1β, TNF-α and IL-6): significantly suppressed
